Laboratory results: ChEMBL document CHEMBL1201862, “PubChem BioAssay data set” (2004)
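Protocol summary: plate cells (96-well), add compound at 5 concentrations, incubate 48 h, interpolate endpoints linearly. GI50 is the concentration that inhibits growth by half.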 Calls of active or inactive are those of the source. Rule as the data show it: active = GI50 up to about 1.1 µM and inactive = higher.

What was measured:
Assay in all cases: growth of human tumour cells (NCI), 48 h
EKVX = test system: EKVX
NCI-H460 = test system: NCI-H460
T47D = test system: T47D
NCI/ADR-RES = test system: NCI/ADR-RES
RPMI-8226 = test system: RPMI-8226
LOX IMVI = test system: LOX IMVI
A549 = test system: A549
HOP-62 = test system: HOP-62
SK-MEL-2 = test system: SK-MEL-2
MCF7 = test system: MCF7
MDA-MB-231 = test system: MDA-MB-231
786-0 = test system: 786-0
HL-60 = test system: HL-60
DU-145 = test system: DU-145
HT-29 = test system: HT-29
UACC-62 = test system: UACC-62
COLO 205 = test system: COLO 205
NCI-H226 = test system: NCI-H226
HOP-92 = test system: HOP-92
SR = test system: SR

SMILES	GI50 (EKVX)	GI50 (NCI-H460)	GI50 (T47D)	GI50 (NCI/ADR-RES)	GI50 (RPMI-8226)	GI50 (LOX IMVI)	GI50 (A549)	GI50 (HOP-62)	GI50 (SK-MEL-2)	GI50 (MCF7)	GI50 (MDA-MB-231)	GI50 (786-0)	GI50 (HL-60)	GI50 (DU-145)	GI50 (HT-29)	GI50 (UACC-62)	GI50 (COLO 205)	GI50 (NCI-H226)	GI50 (HOP-92)	GI50 (SR)
Cc1cc(Cc2cc(C)c(N)cc2N)c(N)cc1N	> 100 µM (inactive)	77.3 µM (inactive)	> 100 µM (inactive)	> 100 µM (inactive)	> 100 µM (inactive)	81.5 µM (inactive)	> 100 µM (inactive)	93.5 µM (inactive)	> 100 µM (inactive)	> 100 µM (inactive)	> 100 µM (inactive)	> 100 µM (inactive)	> 100 µM (inactive)	> 100 µM (inactive)	> 100 µM (inactive)	> 100 µM (inactive)	> 100 µM (inactive)	> 100 µM (inactive)		
O=C(O)/C(=C\c1ccc(O)cc1)c1cccc2ccccc12	90.6 µM (inactive)	> 100 µM (inactive)	> 100 µM (inactive)	> 100 µM (inactive)		> 100 µM (inactive)	> 100 µM (inactive)	35 µM (inactive)	> 100 µM (inactive)		> 100 µM (inactive)	> 100 µM (inactive)		> 100 µM (inactive)	> 100 µM (inactive)	> 100 µM (inactive)		> 100 µM (inactive)	> 100 µM (inactive)	> 100 µM (inactive)
O=C(/C=C/c1ccc(-c2ccccc2)cc1)NCc1ccc(C(=O)NCc2ccccc2)cc1	> 100 µM (inactive)	> 100 µM (inactive)	> 100 µM (inactive)	> 100 µM (inactive)		> 100 µM (inactive)	> 100 µM (inactive)	57.1 µM (inactive)	> 100 µM (inactive)	> 100 µM (inactive)	> 100 µM (inactive)	> 100 µM (inactive)		> 100 µM (inactive)	71.1 µM (inactive)	> 100 µM (inactive)	> 100 µM (inactive)	> 100 µM (inactive)	> 100 µM (inactive)	
Clc1cccc(Cl)c1C1SCc2nc3ncccc3n21 (stereo unspecified)	> 100 µM (inactive)	> 100 µM (inactive)	> 100 µM (inactive)	> 100 µM (inactive)	80.4 µM (inactive)	> 100 µM (inactive)	> 100 µM (inactive)	> 100 µM (inactive)	> 100 µM (inactive)		19 µM (inactive)	> 100 µM (inactive)	60.7 µM (inactive)	> 100 µM (inactive)	> 100 µM (inactive)	> 100 µM (inactive)	> 100 µM (inactive)	66.8 µM (inactive)		> 100 µM (inactive)
CN[C@H]1CC[C@]23C[C@]24CC[C@]2(C)[C@@H]([C@H](C)N(C)C)CC[C@@]2(C)[C@@H]4CC[C@H]3C1(C)C	18.2 µM (inactive)	18.2 µM (inactive)	14.6 µM (inactive)	18.5 µM (inactive)	12.9 µM (inactive)	5.32 µM (inactive)	17.4 µM (inactive)		18 µM (inactive)	15.6 µM (inactive)	21.1 µM (inactive)	6.78 µM (inactive)	10.8 µM (inactive)	14.4 µM (inactive)	2.85 µM (inactive)	15.8 µM (inactive)	12.1 µM (inactive)	16.5 µM (inactive)	10.9 µM (inactive)	
O=C(O)c1nc2ccc(C(F)(F)F)cc2nc1Nc1ccc(F)cc1	20.7 µM (inactive)	16.1 µM (inactive)		20.2 µM (inactive)		18.5 µM (inactive)		17.1 µM (inactive)	15.3 µM (inactive)	23 µM (inactive)	25.1 µM (inactive)	20 µM (inactive)	12.6 µM (inactive)	21.2 µM (inactive)	28.1 µM (inactive)	11.7 µM (inactive)	19.5 µM (inactive)	18.1 µM (inactive)		12.1 µM (inactive)
COc1cc(/C=N/NC(=O)c2ccc(NC(C)=O)cc2OC)ccc1O	77.6 µM (inactive)		84.5 µM (inactive)	> 100 µM (inactive)	> 100 µM (inactive)	47.4 µM (inactive)	> 100 µM (inactive)		26.9 µM (inactive)	> 100 µM (inactive)		> 100 µM (inactive)	> 100 µM (inactive)	69.5 µM (inactive)	> 100 µM (inactive)	61.9 µM (inactive)	56.1 µM (inactive)	< 0.01 µM (active)	22.6 µM (inactive)	> 100 µM (inactive)
O=S(=O)(O)c1cccc2ccc(O)c(/N=N\c3ccc(S(=O)(=O)c4ccc(/N=N/c5c(O)ccc6cccc(S(=O)(=O)O)c56)cc4)cc3)c12	> 100 µM (inactive)		> 100 µM (inactive)	> 100 µM (inactive)	> 100 µM (inactive)		> 100 µM (inactive)	> 100 µM (inactive)	> 100 µM (inactive)		> 100 µM (inactive)	> 100 µM (inactive)	< 0.01 µM (active)	> 100 µM (inactive)	> 100 µM (inactive)	> 100 µM (inactive)	> 100 µM (inactive)	> 100 µM (inactive)	> 100 µM (inactive)	
Cc1cn(C2CC(N=[N+]=[N-])C(CO)O2)c(=O)n(CCCCBr)c1=O (stereo unspecified)	> 100 µM (inactive)	> 100 µM (inactive)	> 100 µM (inactive)	63.8 µM (inactive)	50.7 µM (inactive)	89.7 µM (inactive)	> 100 µM (inactive)	> 100 µM (inactive)	61 µM (inactive)	60.5 µM (inactive)	35.6 µM (inactive)	> 100 µM (inactive)		> 100 µM (inactive)	> 100 µM (inactive)	> 100 µM (inactive)	> 100 µM (inactive)	> 100 µM (inactive)	> 100 µM (inactive)	
CC(C)[Si](OC1=C(C(=O)N(C)c2ccccc2Cl)CCC1)(C(C)C)C(C)C	16.9 µM (inactive)	22.4 µM (inactive)	19.7 µM (inactive)	16.2 µM (inactive)	19.2 µM (inactive)	19.2 µM (inactive)	15 µM (inactive)	17.6 µM (inactive)			16 µM (inactive)	21.7 µM (inactive)		22 µM (inactive)	15.3 µM (inactive)		17.8 µM (inactive)	21.1 µM (inactive)	18.3 µM (inactive)	
Cc1ccc(/N=N/C(=O)NNc2ccc(C)cc2Br)c(Br)c1		17.3 µM (inactive)	17.8 µM (inactive)		20 µM (inactive)	18 µM (inactive)	24.4 µM (inactive)	19.6 µM (inactive)	16.1 µM (inactive)	21.8 µM (inactive)	26.3 µM (inactive)	18.4 µM (inactive)	18.7 µM (inactive)	19.9 µM (inactive)	40.9 µM (inactive)	10.9 µM (inactive)		21.3 µM (inactive)		14.7 µM (inactive)
Cc1nc2n(c1/C=C1/C(=O)Nc3ccccc31)CCS2	46.7 µM (inactive)	35.7 µM (inactive)	25.8 µM (inactive)	33.8 µM (inactive)	47.1 µM (inactive)	72.4 µM (inactive)	51.9 µM (inactive)	> 100 µM (inactive)	5.74 µM (inactive)	24.3 µM (inactive)	32.7 µM (inactive)	64.1 µM (inactive)	32.1 µM (inactive)	53.8 µM (inactive)	38.4 µM (inactive)	24.2 µM (inactive)	20.2 µM (inactive)		> 100 µM (inactive)	
Cc1nc(Nc2ccccc2Cl)sc1C(=O)CC(=O)C(N)=O	18.2 µM (inactive)	32.6 µM (inactive)	> 100 µM (inactive)	31.3 µM (inactive)	26.3 µM (inactive)	27.4 µM (inactive)	41.8 µM (inactive)	> 100 µM (inactive)	35.1 µM (inactive)	29.3 µM (inactive)	57.4 µM (inactive)	58.9 µM (inactive)	11.8 µM (inactive)	> 100 µM (inactive)	18.8 µM (inactive)	35.1 µM (inactive)	21.2 µM (inactive)	22.7 µM (inactive)	7.98 µM (inactive)	
CCOC(=O)CCN1C(=O)c2ccc(NC(=O)C(=O)O)cc2S1(=O)=O	> 100 µM (inactive)	> 100 µM (inactive)		> 100 µM (inactive)	> 100 µM (inactive)	> 100 µM (inactive)	> 100 µM (inactive)	> 100 µM (inactive)	> 100 µM (inactive)	> 100 µM (inactive)	> 100 µM (inactive)	> 100 µM (inactive)	> 100 µM (inactive)	> 100 µM (inactive)	> 100 µM (inactive)	> 100 µM (inactive)	> 100 µM (inactive)	> 100 µM (inactive)	> 100 µM (inactive)	> 100 µM (inactive)
c1ccc(C2=Nc3nc4ccccc4n3C(c3ccccc3)C2)cc1 (stereo unspecified)	> 100 µM (inactive)	> 100 µM (inactive)	> 100 µM (inactive)	> 100 µM (inactive)	> 100 µM (inactive)	> 100 µM (inactive)	> 100 µM (inactive)	36 µM (inactive)	> 100 µM (inactive)	> 100 µM (inactive)	70.6 µM (inactive)	> 100 µM (inactive)	> 100 µM (inactive)		> 100 µM (inactive)	> 100 µM (inactive)	> 100 µM (inactive)	> 100 µM (inactive)	24.6 µM (inactive)	> 100 µM (inactive)
CCC(=O)OC1=C(c2ccccc2)Sc2ccc(Cl)cc2-n2cccc21	> 10 µM (inactive)		> 10 µM (inactive)		4.45 µM (inactive)	8.65 µM (inactive)	> 10 µM (inactive)	> 10 µM (inactive)		7.21 µM (inactive)	4.47 µM (inactive)	> 10 µM (inactive)	3.95 µM (inactive)	> 10 µM (inactive)	3.78 µM (inactive)	8.73 µM (inactive)	> 10 µM (inactive)		5.78 µM (inactive)	7.52 µM (inactive)
